# pIC50, pKi: −log10 of the molar value.
# Molecular target: T1, V3 receptor (Rattus norvegicus, UniProt P48974)
# T1 construct: Anterior pituitary corticotrophs were prepared from adult female Sprague-Dawley rats; endogenous in cells; host or cells: primary anterior pituitary corticotrophs from adult female Sprague-Dawley rats
# T1 sequence (P48974 1-425): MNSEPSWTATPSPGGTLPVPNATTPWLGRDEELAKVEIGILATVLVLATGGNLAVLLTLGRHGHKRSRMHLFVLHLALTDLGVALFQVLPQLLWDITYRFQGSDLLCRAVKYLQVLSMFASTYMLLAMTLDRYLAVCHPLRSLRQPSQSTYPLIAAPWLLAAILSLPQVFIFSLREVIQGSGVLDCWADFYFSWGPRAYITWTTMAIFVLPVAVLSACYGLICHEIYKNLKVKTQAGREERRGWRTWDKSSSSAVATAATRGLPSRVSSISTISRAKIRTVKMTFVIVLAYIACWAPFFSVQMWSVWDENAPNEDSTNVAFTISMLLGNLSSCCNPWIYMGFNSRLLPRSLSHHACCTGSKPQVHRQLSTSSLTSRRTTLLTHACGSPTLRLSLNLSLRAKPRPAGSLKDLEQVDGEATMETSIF
# Test: Block of AVP-induced ACTH release from isolated rat anterior pituitary corticotrophs
# Format: cell-based
# Conditions: ACTH release after 3x10^-9 mol/L AVP for 120 minutes; ELISA; read-out: V3 receptor antagonism in isolated rat anterior pituitary cells
# Description: The ability of compounds of the invention to act as V3 antagonists in a physiologically relevant system was determined by measuring their ability to block the release of adrenocorticotropic hormone (ACTH) from anterior pituitary corticotrophs in response to treatment with arginine vasopressin (AVP).
# Anterior pituitary corticotrophs were prepared from adult female Sprague-Dawley rats and seeded into 48 well plates. The cells were cultured for 4 days prior to exposure to compound. Test compounds were prepared at 10^−5 mol.L^−1 in 100% DMSO. Cells were exposed to a dose response of test compounds for 20 minutes (10^−8 mol.L^−1−10^−5 mol.L^−1). The final concentration of DMSO in the assay was kept constant at 0.3%. The cells were then exposed to 3×10^−9 mol.L^−1 AVP for 120 minutes. Supernatants were harvested and stored at −20° C. ACTH levels were subsequently measured by ELISA following the manufacturer's instructions (Immunodiagnostic systems, UK (Cat No. DX-SDX018)). Each treatment was carried out in quadruplicate and a mean value obtained for the amount of ACTH released. The degree of antagonism was then calculated as a percentage of the amount of ACTH released by agonist alone after adjustment for basal levels of ACTH. A pIC50 was calculated by fitting a Sigmoidal dose response (variable slope) curve with a non-linear (fit) to the data using the software package GraphPad prism. […]
row,pIC50,Compound
1,6.00 to 7.00,"CC(C)NC(=O)Cn1c(-c2cccc(Cl)c2)cc2ccc(OC[C@@H](C)CN3CCCC3)cc2c1=O [EXAMPLE 1, 2-[3-(3-Chlorophenyl)-7-((S)-2-methyl-3-pyrrolidin-1-ylpropoxy)-1-oxo-1H-isoquinolin-2-yl]-N-isopropylacetamide]"
2,7.00 to 8.00,"CC(C)(C)NC(=O)Cn1c(-c2cccc(Cl)c2)cc2ccc(OCCCN3CCC(O)CC3)cc2c1=O [EXAMPLE 17, N-tert-Butyl-2-{3-(3-Chlorophenyl)-7-[3-(4-hydroxypiperidin-1-yl)-propoxy]-1-oxo-1H-isoquinolin-2-yl}-acetamide]"

# Molecular target: T2, human V3 receptor (Homo sapiens, UniProt P47901)
# T2 construct: expressed in transfected cells
# T2 sequence (P47901 1-424): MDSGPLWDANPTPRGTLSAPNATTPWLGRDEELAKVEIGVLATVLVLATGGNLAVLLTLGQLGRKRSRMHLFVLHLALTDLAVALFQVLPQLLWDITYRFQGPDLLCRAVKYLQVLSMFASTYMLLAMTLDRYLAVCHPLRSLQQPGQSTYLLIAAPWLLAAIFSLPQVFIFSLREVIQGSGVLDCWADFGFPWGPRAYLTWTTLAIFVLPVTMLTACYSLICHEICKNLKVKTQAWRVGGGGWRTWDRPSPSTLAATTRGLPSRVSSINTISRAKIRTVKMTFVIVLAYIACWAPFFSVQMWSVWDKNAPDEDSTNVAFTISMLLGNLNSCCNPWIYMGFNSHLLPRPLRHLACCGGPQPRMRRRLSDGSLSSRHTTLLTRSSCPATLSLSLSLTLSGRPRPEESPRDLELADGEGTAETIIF
# Test: [3H]AVP binding to CHO cells stably expressing the human V3 receptor
# Conditions: [3H]AVP 2.5x10^-9 mol/L
# Description: Chinese Hamster Ovary (CHO) cells stably expressing the human V3 receptor were incubated to equilibrium with the test compound (at a final assay concentration of 10^−10 mol.L^−1 to 10^−5 mol.L^−1) and [^3H]AVP (at a final assay concentration of 2.5×10^−9 mol.L^−1). […] After washing with ice-cold phosphate buffered saline (PBS), scintillation fluid was added and the plates counted on a Topcount NXT apparatus.
# A sigmoidal dose response curve (non-linear regression, variable slope) was plotted as concentration of test compound (mol.L^−1) against percentage specific binding of [^3H]AVP and a Ki value was calculated. Each determination was carried out in triplicate and repeated on at least 3 separate occasions
row,pKi,Compound
1,7.00 to 8.00,"CC(C)NC(=O)Cn1c(-c2cccc(F)c2)cc2ccc(OC[C@@H](C)CN(C)C)cc2c1=O [EXAMPLE 3, 2-[7-((S)-3-Dimethylamino-2-methylpropoxy)-3-(3-fluorophenyl)-1-oxo-1H-isoquinolin-2-yl]-N-isopropylacetamide]"
2,6.00 to 7.00,"COc1cccc(-c2cc3ccc(OC[C@@H](C)CN4CCCCC4)cc3c(=O)n2CC(=O)NC(C)C)c1 [EXAMPLE 14, N-Isopropyl-2-[3-(3-methoxyphenyl)-7-((S)-2-methyl-3-piperidin-1-ylpropoxy)-1-oxo-1H-isoquinolin-2-yl]acetamide]"
3,7.00 to 8.00,"COc1cccc(-c2cc3ccc(OCCCN4CCCC4)cc3c(=O)n2CC(=O)NC(C)(C)C)n1 [EXAMPLE 23, N-tert-Butyl-2-[3-(6-methoxypyridin-2-yl)-1-oxo-7-(3-pyrrolidin-1-ylpropoxy)-1H-isoquinolin-2-yl]acetamide]"
4,> 8.00,"CC(C)NC(=O)Cn1c(-c2ccccc2)cc2ccc(OCCCN3CCCCC3)cc2c1=O [EXAMPLE 26, N-Isopropyl-2-[1-oxo-3-phenyl-7-(3-piperidin-1-ylpropoxy)-1H-isoquinolin-2-yl]acetamide]"
5,6.00 to 7.00,"CC(C)(C)NC(=O)Cn1c(-c2ccc(F)c(Cl)c2)cc2ccc(OCCCN3CCCC3)cc2c1=O [EXAMPLE 28, N-tert-Butyl-2-[3-(3-chloro-4-fluorophenyl)-1-oxo-7-(3-pyrrolidin-1-ylpropoxy)-1H-isoquinolin-2-yl]acetamide]"
6,7.00 to 8.00,"CC(C)NC(=O)Cn1c(-c2cccc(Cl)c2)cc2ccc(-c3cccc(CN4CCCCC4)c3)cc2c1=O [EXAMPLE 35, 2-[3-(3-Chlorophenyl)-1-oxo-7-(3-piperidin-1-ylmethylphenyl)-1H-isoquinolin-2-yl]-N-isopropylacetamide]"

# — patent publication US7906504B2, “2-(1-oxo-1H-isoquinolin-2-yl)acetamide derivatives” (N.V. Organon, priority 2006, dated 2011)
